Target: T1, amyloid-β 1-42 (Aβ1-42) (Homo sapiens, UniProt P05067)
T1 construct: gene APP; Aβ1-42 peptide
Test: Thioflavin T aggregation assay with purified Aβ[…]-42 peptide
Assay type: biochemical

T1 sequence (P05067 672-713): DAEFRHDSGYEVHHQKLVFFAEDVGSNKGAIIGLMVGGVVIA

IC50 [µM] | Structure (SMILES)
30.4 | COc1c(/C=C/C(=O)c2ccc(O)c(CC=C(C)C)c2)ccc(O)c1O [Lico D, Licochalcone D]
104 | C=C(C)[C@H](C)c1cc(/C=C/C(=O)c2ccc(O)cc2)c(OC)cc1O [Lico E, Licochalcone E]

Reference: article PMC9953043, “Licochalcone E, a β-Amyloid Aggregation Inhibitor, Regulates Microglial M1/M2 Polarization via Inhibition of CTL1-Mediated Choline Uptake” (Biomolecules, 2023)
